Reference: US20220281902A1, “MIT[…] IMPROVE METABOLIC SYNDROME DURING AGING” (The Board of Trustees of the Leland Stanford Junior …, priority 2019, published 2022)
Marks after values point to notes of the source that are not given here.

Tests used:
3T3-L1 pre-adipocytes = test: In vitro adipocyte differentiation (Oil Red O, protein blotting); assay type: cell-based
ATP production = test: ATP level in liver of treated mice; assay type: in vivo, mouse
Text: Measurement of ATP level in liver. For measuring ATP, cellular ATP in livers was extracted using an ATP extraction kit of an ATP assay kit (Sigma-Aldrich, MAKI 90). The ATP level was quantitatively measured by the absorbance at 570 nm (A570).

[1] = system: ASC1, Wdnm1-like, FGF-21, PGC-1α transcripts; test: qPCR of adipogenesis regulators and white fat inducing transcripts in visceral fat; assay type: in vivo, mouse
Procedure: (§1) Gene expression & RT qPCR Analyses. Total RNA was isolated using a commercially available kit (OMEGA bio-tek, R6812-02) according to the manufacturer's instructions. cDNA was generated using the PrimeScript RT reagent kit (TAKARA, RR047A). Gene expression were determined by qPCR as described in the product manual. The analysis was evaluated by Bio-Rad Real-Time System (CFX Connect™).
(§2) RNAs from 10 mice (5 treated and 5 Ctrl.) VF fat or livers were isolated by using omega Bio-Tek reagents, and cDNA was transcribed by (TAKARA). qPCR was then performed by using iQ SYBR Green mastermix bioscience on a CFX96 Real-Time System/C1000 Thermal Cycler (Bio-Rad).

[2] = Body weight variations on high fat diet (HFD, 60% fat); assay type: in vivo, C57BL/6 mice; conditions: for body weight gain on HFD: after 8 weeks HFD; for BW contrast of treated vs control: end of 8-week HFD
Procedure: (§3) Animal experimentation. Male C57BL/6 mice (Shanghai SLAC Laboratory animal Co. Ltd) were group-housed in a barrier facility with 12-hr light/12-hr dark cycles. All mice received a regular chow diet ad libitum (PicoLab 5053 Rodent Diet 20; Lab Diets) except for HFD (40-60%) and CR models. The compound was then administered in drinking water ad libitum at either 90-100 or 100-120 mg/kg/day, based on the previously measured water consumption.
(§4) The C57BL/6 mice were maintained on a standard purified mouse diet (PicoLab 5053 Rodent Diet 20; Lab Diets) until they reached 2 months of age when the treatments started. The CR animals were subjected to a lifelong restriction on PicoLab 5053 Rodent Diet 20; Lab Diets, starting at 12 weeks of age, with a daily food allotment of 60% of that eaten by the ad lib animals. Besides CR animals, the C57BL/6 groups in this study were fed the standard high fat diet (HFD; 60 or 40% fat). Body weights were measured weekly at the same time each week. Food and water intake were measured once every month for 3-6 consecutive days at the same time each month. Water consumption was measured for 2 weeks prior to the start of administration. Compound was generated and modified for better permeability in to mitochondria, evaluated by HPLC, was 96%-97%. The administration began at 8 weeks of age and continued for 16 months, until they became 18-month-old. The drug solution was prepared weekly in small batches by dissolving the compound into autoclaved water at the respective doses and filtering sterilely. Aliquots were collected from each batch and measured by HPLC to confirm stability of the compound. Water bottles and cages were changed twice weekly. Fed and fasted blood samples were collected monthly at the same time each month from tail and used for glucose, insulin, blood cell counts, lipid analysis using assay kits (Robio, China) and HbA1C assay kit (Crystal chem, USA) following the manufacturer protocol. IPGTTs and ITTs were conducted throughout morning and early afternoon after fasting for 16-18 hrs. and 4 hrs., respectively, once before start of treatment administration began and every 3 months thereafter. Rectal body temperature was measured monthly, as described previously. Whole blood samples, and histopathology were analyzed after 14 months of treatment. Tissue samples were collected after 10-14 months from mice, sacrificed and used for WB and qPCR microarray, and other analyses. All animal studies were approved by the Shanghai Jiao Tong University Animal Studies Committee and were in accordance with NIH guidelines. (Number of mice; SD=30, HFD=10, CR=20).

mature 3T3-L1 cells = test: 2-NBDG glucose uptake in matured adipocytes; assay type: cell-based; conditions: highest concentration 50 μg/mL, vs insulin (control) and Rosiglitazone
Procedure: Second, adipocytes are the main site of insulin action and, thereby, play an important role in glucose metabolism as well as in the regulation of body glucose homeostasis. Therefore, the glucose uptake tests were evaluated on matured adipocytes to stimulate 2-NBDG (glucose) in the absence and presence of insulin and Rosiglitazone (insulin-sensitizer) and the higher insulin sensitivity was verified after treatment by the inhibitor.

[3] = Serum biomarkers in treated mice; assay type: in vivo, C57BL/6 mice; conditions: 100 mg/Kg per day
Text: as §4

[4] = DEXA body composition analysis and fat depot analysis; assay type: in vivo; conditions: 14 month old mice
[5] = system: UCP1, UCP2, CIDEA, Cox8b transcripts; test: qPCR of thermoregulatory factors and beiging inducers; assay type: in vivo, mouse; conditions: brown fat, after 14 months of treatment
Procedure: as §1, §2

[6] = system: reactive oxygen species (ROS); test: Serum ROS generation evaluation; assay type: in vivo, mouse; conditions: blood plasma, after 14 months of treatment
p16, p21 transcripts = test: qPCR of DNA damage and WAT senescence markers; assay type: in vivo, mouse; conditions: WAT, after 14 months treatment
Procedure: as §1, §2

[7] = Body weight variations on chow diet; assay type: in vivo, C57BL/6 mice; conditions: for body weight lighter than controls: male mice
Procedure: as §3, with “Male C57BL/6 mice (Shanghai SLAC Laboratory animal Co.” left out
as §4

For `Cc1ncsc1CCOC(=O)C[P+](c1ccccc1)(c1ccccc1)c1ccccc1.[Br-]` [HG1a-1, (2-(2-(4-Methylthiazol-5-yl)Ethoxy)-2-Oxoethyl) Triphenylphosphonium Bromide], the adipocyte differentiation (3T3-L1 pre-adipocytes; 3T3-L1, up to 14 days) was “poorly differentiated, immature adipocytes”, the “protein abundance of Pparγ” value (3T3-L1 pre-adipocytes; 3T3-L1 cells) was “significant reduction” and the “decrease of ATP level in liver compared to controls” value (ATP production; 6 months) was 50%. For the same compound, the “decrease of ATP level in liver compared to controls” value (ATP production; long term treated mice) was 25%, the “ASC1 transcript decrease vs control” value ([1]; 14 months of treatment) was > 9 fold and the FGF-21 transcript ([1]; 14 months of treatment) was “remained unchanged”. The “Wdnm1-like transcript decrease vs control” value ([1]; 14 months of treatment) was 30 fold, the PGC-1α transcript ([1]; aged mice) was “increased” and the “BW gain on HFD” value ([2]; 14 month old mice already treated for 12 months, 8 week HFD) was “resisted the BW gain with HFD until 5 weeks”. For the same compound, the “body weight gain on HFD” value ([2]; aged group (12 month old)) was 12%, the “BW contrast of treated vs control” value ([2]; aged group) was 13% and the “body weight gain on HFD” value ([2]; younger group (12 week old)) was 18%. The “BW contrast of treated vs control” value ([2]; younger group) was 2-4%, the 2-NBDG uptake (mature 3T3-L1 cells) was “notably higher” and the “glycated hemoglobin (Hb1Ac) levels vs control and calorie restriction” value ([3]; 12 months continuous treatment) was “lower”. The Cholesterol ([3]; serum, treated mice) was 6.3 ± 0.9 mM/L, the Glucose-fasted ([3]; serum, treated mice) was 4.4 ± 0.2 mM and the Glucose-fed ([3]; serum, treated mice) was 6.5 ± 0.3 mM. The Insulin ([3]; serum, treated mice) was 2.34 ± 0.5 µg/L, the Total protein ([3]; serum, treated mice) was 5.89 ± 0.32 g dl^□−1 and the Triglycerides ([3]; serum, treated mice) was 1.00 ± 1*^ mM/L. The “% HbA1c” value ([3]; treated mice) was 5.5 ± 0.5 %, the gonadal adipose mass [4] was “valid reduction” and the “sub-scapular brown adipose mass” value [4] was “minor effect”. The body fat mass ([4]; DEXA) was “recognizable decrease”, the lean mass ([4]; DEXA) was “trivial changes” and the CIDEA expression amplified [5] was “one-fold”. For the same compound, the Cox8b expression amplified [5] was 7 fold, the UCP2 expression amplified [5] was “> one-fold” and the UPC1 expression increase [5] was 20 fold. The “drop of ROS production” value [6] was ~4 fold, the p16 expression decline (p16, p21 transcripts) was 10 fold and the p21 expression (p16, p21 transcripts) was “remained unchanged”. The “body weight decrease vs controls” value ([7]; female mice, by 9 months) was 26%, the “body weight less than controls” value ([7]; female mice, end of 5 months) was 12% and the “body weight lighter than controls” value ([7]; after 14 months treatment) was 25%. The “body weight lighter than controls” value ([7]; end of 5 months) was 18%.
